Measurements taken from US20240174690A1, “ANNULATED 2-AMINO-3-CYANO THIOPHENES AND DERIVATIVES FOR THE TREATMENT OF CANCER” (BOEHRINGER INGELHEIM INTERNATIONAL GMBH, priority 2021, published 2024).
Converted amounts (≈) assume the structure as drawn. Where two headings read alike, the source gives them in different places.

Tests used:
[1] = Metabolic (microsomal) stability assay, human liver microsomes (HLM); type: in vitro ADME; conditions: predicted clearance as percent of liver blood flow, 1 μM
How it was run: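 LC-MS/MS tracked parent disappearance at 0, 5, 15, 30 and 60 min in NADPH-initiated incubations with 1 mg/mL human microsomal protein and 1 μM compound at 37°C, pH 7.5. First-order fits gave intrinsic clearance, which was scaled up and reported as % QH. NADPH-free controls were also run.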

[2] = Solubility measurement (DMSO solution method), McIlvaine buffer pH 4.5 or 6.8; type: physicochemical; conditions: DMSO stock diluted to 250 μM, 24 h shaking at ambient temperature; for solubility at 24 h: aqueous buffer, kinetic from dmso stock
How it was run: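 Filtrate concentration by LC-UV, calibrated to a known-concentration reference dissolved completely in acetonitrile/water (1:1). Samples came from 250 µM final dilutions of DMSO stock in pH 4.5 or 6.8 McIlvaine buffer, shaken 24 h at ambient temperature, then filtered.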

[3] = system: KRAS G12C-dependent Ba/F3 cells; experiment: Ba/F3 proliferation assay, KRAS G12C; type: cell-based; conditions: AlamarBlue
How it was run: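 IL-3-independent Ba/F3 lines driven by transduced KRAS G12C, G12D or G12V, with puromycin withdrawn about ten days before testing. Viability after compound treatment measured by AlamarBlue fluorescence in duplicate, and values derived by curve fitting.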

SAS cells = experiment: SAS CTG proliferation assay (120 h) (HNSCC, wt amplified); type: cell-based
How it was run: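 Viability measured by CellTiter-Glo luminescence, normalized to DMSO wells, after 120 h compound treatment of SAS cells. Cells grown in DMEM:F12 plus 10% FCS at 300 cells per well, dosed the day after seeding. Four-parameter fit gives IC50.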

[4] = McIlvaine buffer pH 4.5, read-out: solubility pH 4.5
[5] = McIlvaine buffer pH 6.8, read-out: solubility pH 6.8

| Compound | HLM QH [1] [%] | solubility pH 4.5 ([2]; McIlvaine buffer pH 4.5) [μg/ml] | solubility pH 6.8 ([2]; McIlvaine buffer pH 6.8) [μg/ml] | IC50 ([3]; 72 h) [nM] | IC50 (SAS cells) [nM] | solubility at 24 h [2, 4] [µg/mL] | solubility at 24 h [2, 5] [µg/mL] | IC50 ([3]; Mus musculus, BaF3, 72 h) [nM] |
| --- | --- | --- | --- | --- | --- | --- | --- | --- |
| C[C@H](Oc1cc(-c2ccn(C)n2)nc(-c2onc3c2CCC[C@@]32CCCc3sc(N)c(C#N)c32)n1)[C@@H]1CCCN1C [I-21] | 44 | 110 | 33 | 6 | 40 | – | – | – |
| C[C@H](Oc1cc(N2CCN(C)C3(COC3)C2)nc(-c2noc3c2CCC[C@@]32CCCc3sc(N)c(C#N)c32)n1)[C@@H]1CCCN1C [II-13] | <24 | – | – | – | 450 | > 139 | > 147 | 120 |
| C[C@H]1CN(C)CCCN1c1cc(N2CCN(C)CC2)nc(-c2noc3c2CCC[C@@]32CCCc3sc(N)c(C#N)c32)n1 [II-30] | <24 | – | – | – | 10600 | > 136 | > 125 | 1050 |
| C[C@H](Oc1cc(N2CC[C@H](N3CCCC3)C2)nc(-c2noc3c2CCC[C@@]32CCCc3sc(N)c(C#N)c32)n1)[C@@H]1CCCN1C [II-14] | <24 | – | – | – | 1670 | > 151 | 123 (≈ 196 µM) | 293 |
| C[C@H](Oc1cc(N2C[C@H](C)N(C)[C@@H](C)C2)nc(-c2onc3c2CCC[C@@]32CCCc3sc(N)c(C#N)c32)n1)[C@@H]1CCCN1C [I-43] | <24 | – | – | – | 1800 | > 346 | > 306 | 170 |
| C[C@H](Oc1cc([C@@H]2CCN(C)C2)nc(-c2noc3c2CCC[C@@]32CCCc3sc(N)c(C#N)c32)n1)[C@@H]1CCCN1C [II-37] | <24 | – | – | – | 1250 | > 152 | > 152 | 132 |
| C[C@H](Oc1cc(-n2ccc(C(=O)NC3COC3)n2)nc(-c2noc3c2CCC[C@@]32CCCc3sc(N)c(C#N)c32)n1)[C@@H]1CCCN1C [II-25] | <24 | – | – | – | 9 | 124 (≈ 189 µM) | 73 (≈ 111 µM) | 3 |
| C[C@H](Oc1cc(N2CC3CCC(C2)N3)nc(-c2noc3c2CCC[C@@]32CCCc3sc(N)c(C#N)c32)n1)[C@@H]1CCCN1C [II-34] | <24 | – | – | – | 1950 | > 146 | 114 (≈ 190 µM) | 527 |
| C[C@H](Oc1cc(N2CCNC(C)(C)C2)nc(-c2noc3c2CCC[C@@]32CCCc3sc(N)c(C#N)c32)n1)[C@@H]1CCCN1C [II-32] | <24 | – | – | – | 8310 | > 121 | 117 (≈ 194 µM) | 474 |
| C[C@H](Oc1cc(-c2cnn(C)n2)nc(-c2noc3c2CCC[C@@]32CCCc3sc(N)c(C#N)c32)n1)[C@@H]1C[C@@H](F)CN1C [II-28] | 51 | – | – | – | 203 | > 133 | < 1 | 35 |
| C[C@H](Oc1cc(N2CCN(C)CC2)nc(-c2noc3c2CCC[C@@]32CCCc3sc(N)c(C#N)c32)n1)[C@@H]1CCCN1[C@@H]1CCOC1 [II-39] | 52 | – | – | – | 2940 | – | – | 193 |
| C[C@H](Oc1nc(-c2onc3c2CCC[C@@]32CCCc3sc(N)c(C#N)c32)cc(N2CCNC3(CC3)C2)n1)[C@@H]1CCCN1C [I-2] | 44 | – | – | – | – | > 142 | > 131 | 493 |
| C[C@H](Oc1cc(-n2ccsc2=O)nc(-c2noc3c2CCC[C@@]32CCCc3sc(N)c(C#N)c32)n1)[C@@H]1CCCN1C [II-135] | 54 | – | – | – | 69 | 19 (≈ 32.2 µM) | < 1 | 4 |
| C[C@H](Oc1cc(N2C[C@H]3CN(C)C[C@H]3C2)nc(-c2noc3c2CCC[C@@]32CCCc3sc(N)c(C#N)c32)n1)[C@@H]1CCCN1C [II-33] | <24 | – | – | – | 597 | – | – | 527 |
| C[C@H]1CN(C)CCCN1c1nc(-c2onc3c2CCC[C@@]32CCCc3sc(N)c(C#N)c32)cc(N2CCN(C)C3(CC3)C2)n1 [I-42] | 42 | – | – | – | – | > 141 | 99 (≈ 161 µM) | 867 |
| C[C@H](Oc1cc(-c2ccn3ncnc3c2)nc(-c2onc3c2CCC[C@@]32CCCc3sc(N)c(C#N)c32)n1)[C@@H]1CCCN1C [I-33] | <24 | – | – | – | 81 | 8 (≈ 13.2 µM) | 4 (≈ 6.58 µM) | 14 |
| C[C@H](Oc1nc(-c2noc3c2CCC[C@@]32CCCc3sc(N)c(C#N)c32)cc(N2C[C@H](C)N[C@@H](C)C2)n1)[C@@H]1CCCN1C [II-46] | 27 | – | – | – | 399 | > 150 | > 150 | 50 |
| C[C@H](Oc1cc(N2CC[C@H](N3CCCCC3)C2)nc(-c2noc3c2CCC[C@@]32CCCc3sc(N)c(C#N)c32)n1)[C@@H]1CCCN1C [II-12] | <24 | – | – | – | 1920 | > 143 | > 137 | 438 |
| C[C@H](Oc1cc(-n2ccc(C(=O)O)n2)nc(-c2noc3c2CCC[C@@]32CCCc3sc(N)c(C#N)c32)n1)[C@@H]1CCCN1C [II-24] | <24 | – | – | – | 15600 | < 1 | < 1 | 9220 |
| C[C@H](Oc1cc(N2CCN(C)C3(CC3)C2)nc(-c2onc3c2CCC[C@@]32CCCc3sc(N)c(C#N)c32)n1)[C@@H]1CCCN1C [I-41] | <24 | – | – | – | 4190 | > 137 | 118 (≈ 192 µM) | 233 |
| C[C@H](Oc1cc([C@H]2CCN(C)C2)nc(-c2noc3c2CCC[C@@]32CCCc3sc(N)c(C#N)c32)n1)[C@@H]1CCCN1C [II-38] | <24 | – | – | – | 47 | – | – | 66 |
| C[C@H](Oc1nc(-c2onc3c2CCC[C@@]32CCCc3sc(N)c(C#N)c32)cc(N2CCN(C)C3(CC3)C2)n1)[C@@H]1CCCN1C [I-40] | 42 | – | – | – | – | – | – | 913 |
